Results as given in paper PMC7576608, “Mechanisms of telomerase inhibition by oxidized and therapeutic dNTPs” (Nature Communications, 2020).
Several values for one entry are separate records, joined by “and”; a condition that tells them apart may be missing. Equal values may be shown once. Read-outs that look alike come from different tables or passages of the source.

Assays:
tcTERT [1] = biological target: T1, tcTERT (Tribolium castaneum, UniProt Q0QHL8); experiment: Pre-steady-state single-turnover kinetics of tcTERT single nucleotide insertion; format: biochemical; set-up: tcTERT kobs: unit not given here; details: for Fold change: catalytic efficiency relative to dGTP
Source text: In order to better understand the ability of modified dNTPs to compete with natural dNTPs for telomerase utilization, we added modified dNTPs to reactions containing all four natural dNTPs. […] The calculated IC50 determines the concentration required to reduce repeat processivity in the bulk reactions by half. However, it is important to note that bulk experiments cannot distinguish effects on individual telomeres, since extended telomeres mask unextended telomeres. Incorporation of a chain terminator during any step will terminate extension of the affected telomere, and just five critically short telomeres are sufficient to trigger senescence. Therefore, repeat processivity IC50 values are not necessarily an indicator of the inhibitory potency, but provide information on selectivity for modified dNTPs compared to natural dNTPs. […] The ability to purify sufficient quantities of tcTERT enables characterization of the catalytic nucleotide addition by pre-steady-state single turnover kinetics using a defined DNA–RNA primer–template substrate. The catalytic efficiency of incorporating a single dNTP is measured by dividing the observed nucleotide incorporation rate constant, kpol, by the equilibrium dissociation constant for dNTP binding to the tcTERT–primer–template complex (Kd)[44].
Pre-steady-state kinetic parameters of tcTERT were obtained using established pre-steady-state kinetics protocols for DNA polymerases, also known as single turnover kinetics[70],[71]. Briefly, we preincubated 2 μM tcTERT with 200 nM annealed DNA:RNA hybrid substrate, with a 6-FAM label on the 5′ end of the DNA component. We then used a KinTek RQF-3 (a rapid quench-flow instrument) to mix equal ratios of the incoming nucleotide triphosphate and 10 mM MgCl2 with the existing mix of tcTERT and its DNA:RNA hybrid substrate. Reactions were run at 37 °C and quenched at various timepoints with 100 mM EDTA pH 7.5. […] After each reaction, the samples were transferred to a DNA gel loading buffer, containing 100 mM EDTA, 80% deionized formamide, 0.25 mg ml^−1 bromophenol blue, and 0.25 mg ml^−1 xylene cyanol. These mixes were then incubated at 95 °C for 5 min, and loaded onto a 21% denaturing polyacrylamide gel. These gels were run at 700 V, […], and 30 W at 30 °C in order to separate the reaction product from its substrate.
Means and standard deviations from at least three independent replicates were calculated, and graphed using KaleidaGraph version 4.5.2. Plots of product formation over time were fit to the exponential equation (1) to determine kobs values:1 P=A(1−e^−kobst).
In which [P] is the concentration of the product, A is the target engagement (amplitude), and t is the reaction time. After kobs values were determined for multiple nucleotide triphosphate concentrations, the data was replot to compare kobs to concentration of nucleotide triphosphate, and fit to Eq. (2):2 kobs=kpol[NTP]/Kd+[NTP]. with kpol representing the theoretical maximum value of kobs, and [NTP] representing the concentration of the nucleotide of interest.

tcTERT [2] = biological target: T1, tcTERT; details: cited from earlier work
polymerase β = polymerase β (Homo sapiens, UniProt P06746); experiment: Polymerase β dGTP run-on assay; format: biochemical; details: 50 or 200 μM dGTP
Procedure: These mixes were then incubated at 95 °C for 5 min, and loaded onto a 21% denaturing polyacrylamide gel. These gels were run at 700 V, […], and 30 W at 30 °C in order to separate the reaction product from its substrate.
Supplementary Fig 4. Time course reactions with telomerase or pol β. (a, b) Telomerase reactions were conducted with 5 nM 32P-end labeled primer (a) Primer 4 (GTTAGG)3 or (b) Primer 2 (GGTTAG)3.
Products were separated on denaturing gels. Letters on the right indicate the template base; P indicates unextended 18-mer primer. Graphs represent the percent primer extended for the reactions in panels a and b from one experiment. ( c, d) Primer extension by human polymerase b. The double stranded 6- […]
reactions were run on denaturing gels and imaged using a Typhoon phosphoimager. P indicates unextended 13-mer primer from three independent experiments. Source data are provided as a Source […]

[3] = dNTP binding to tcTERT-primer-template complex

T1 sequence (Q0QHL8 entry or part of it): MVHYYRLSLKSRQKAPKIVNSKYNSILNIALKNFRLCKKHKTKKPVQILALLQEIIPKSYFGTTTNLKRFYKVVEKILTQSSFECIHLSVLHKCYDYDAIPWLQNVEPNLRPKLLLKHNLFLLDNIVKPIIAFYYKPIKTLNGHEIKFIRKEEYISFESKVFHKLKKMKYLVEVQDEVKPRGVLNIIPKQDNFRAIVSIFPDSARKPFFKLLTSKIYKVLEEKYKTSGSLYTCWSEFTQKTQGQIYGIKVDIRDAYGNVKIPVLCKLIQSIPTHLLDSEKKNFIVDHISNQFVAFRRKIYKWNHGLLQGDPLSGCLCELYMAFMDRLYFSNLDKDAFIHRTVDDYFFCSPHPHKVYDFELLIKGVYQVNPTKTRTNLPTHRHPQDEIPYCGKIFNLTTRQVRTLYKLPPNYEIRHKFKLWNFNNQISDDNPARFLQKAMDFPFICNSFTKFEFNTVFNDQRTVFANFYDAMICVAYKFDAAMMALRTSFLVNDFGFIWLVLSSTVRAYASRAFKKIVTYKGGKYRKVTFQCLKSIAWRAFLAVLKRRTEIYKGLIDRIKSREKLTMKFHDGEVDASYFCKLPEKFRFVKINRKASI

## Nc1nc2c(ncn2C2CC(O)C(COP(=O)(O)OP(=O)(O)OP(=O)(O)O)O2)c(=S)[nH]1 (stereo not shown) [6-thio-dGTP]
tcTERT [1]; [6-thio-dGTP] 0.5 uM, Mean
  tcTERT kobs: 0.024
tcTERT [1]; [6-thio-dGTP] 0.5 uM, single replicates
  tcTERT kobs: 0.020 and 0.017 and 0.037
tcTERT [1]; [6-thio-dGTP] 1 uM, Mean
  tcTERT kobs: 0.036
tcTERT [1]; [6-thio-dGTP] 1 uM, single replicates
  tcTERT kobs: 0.046 and 0.026 and 0.035
tcTERT [1]; [6-thio-dGTP] 3 uM, Mean
  tcTERT kobs: 0.084
tcTERT [1]; [6-thio-dGTP] 3 uM, single replicates
  tcTERT kobs: 0.093 and 0.083 and 0.076
tcTERT [1]; [6-thio-dGTP] 5 uM, Mean
  tcTERT kobs: 0.142
tcTERT [1]; [6-thio-dGTP] 5 uM, single replicates
  tcTERT kobs: 0.256 and 0.136 and 0.070 and 0.105
tcTERT [1]; [6-thio-dGTP] 7 uM, Mean
  tcTERT kobs: 0.143
tcTERT [1]; [6-thio-dGTP] 7 uM, single replicates
  tcTERT kobs: 0.232 and 0.073 and 0.125
tcTERT [1]; [6-thio-dGTP] 10 uM, Mean
  tcTERT kobs: 0.239
tcTERT [1]; [6-thio-dGTP] 10 uM, single replicates
  tcTERT kobs: 0.389 and 0.333 and 0.126 and 0.109
tcTERT [1]; [6-thio-dGTP] 15 uM, Mean
  tcTERT kobs: 0.330
tcTERT [1]; [6-thio-dGTP] 15 uM, single replicates
  tcTERT kobs: 0.523 and 0.151 and 0.314
tcTERT [1]; [6-thio-dGTP] 20 uM, Mean
  tcTERT kobs: 0.552
tcTERT [1]; [6-thio-dGTP] 20 uM, single replicates
  tcTERT kobs: 0.535 and 0.464 and 0.603 and 0.606
tcTERT [1]; [6-thio-dGTP] 25 uM, Mean
  tcTERT kobs: 0.632
tcTERT [1]; [6-thio-dGTP] 25 uM, single replicates
  tcTERT kobs: 0.411 and 0.737 and 0.749
tcTERT [1]; [6-thio-dGTP] 40 uM, Mean
  tcTERT kobs: 0.951
tcTERT [1]; [6-thio-dGTP] 40 uM, single replicates
  tcTERT kobs: 0.795 and 1.041 and 1.018
tcTERT [1]; [6-thio-dGTP] 50 uM, Mean
  tcTERT kobs: 1.139
tcTERT [1]; [6-thio-dGTP] 50 uM, single replicates
  tcTERT kobs: 1.051 and 1.270 and 1.096
tcTERT [1]; [6-thio-dGTP] 75 uM, Mean
  tcTERT kobs: 1.424
tcTERT [1]; [6-thio-dGTP] 75 uM, single replicates
  tcTERT kobs: 1.281 and 1.438 and 1.554
tcTERT [1]; [6-thio-dGTP] 100 uM, Mean
  tcTERT kobs: 1.760
tcTERT [1]; [6-thio-dGTP] 100 uM, single replicates
  tcTERT kobs: 1.806 and 1.680 and 1.793
tcTERT [1]; [6-thio-dGTP] 150 uM, Mean
  tcTERT kobs: 1.896
tcTERT [1]; [6-thio-dGTP] 150 uM, single replicates
  tcTERT kobs: 1.870 and 2.039 and 1.778
tcTERT [1]
  Fold change: 0.579
tcTERT [1]; [3]
  Kd: 92.4 ± 12.9 µM
tcTERT [1]; single nucleotide insertion, 37 °C
  kpol: 3.1 ± 0.23 s⁻¹

## Nc1nc2c(ncn2C2CC(O)C(COP(=O)(O)OP(=O)(O)OP(=O)(O)O)O2)c(=O)[nH]1 (stereo not shown) [dGTP]
tcTERT [2]; [3]
  Kd: 18.1 ± 3.78 µM
tcTERT [2]; single nucleotide insertion
  Catalytic efficiency (kpol/Kd): 0.058 ± 0.012 µM⁻¹ s⁻¹
  kpol: 1.1 ± 0.03 s⁻¹
tcTERT [1]
  Fold higher catalytic efficiency of dGTP compared to 6-thio-dGTP: 2 fold
  Fold change: 1.000
Polymerase β
  Laddering or misincorporation by DNA polymerase β (in words): no evidence of dGTP laddering or misincorporation opposite template A
